# Test system: 349418-098-R tumor spheroid viability
# Assay: Anticancer human tumor 349418-098-R patient-derived lung adenocarcinoma cell line growth inhibition
# Conditions: spheroids with HUVEC and MSC; for IC50: curve of first compound; for viability, T/C: stronger effect = lower value
# Text: Multicellular complex tumor spheroid response to DNA repair inhibitors in combination with DNA-damaging drugs
# This study explores the anticancer activities of DNA-damaging drugs and inhibitors of DNA damage repair, both as single agents and in combinations. Complex tumor spheroids comprised of malignant cells, endothelial cells and mesenchymal stem cells served as an in vitro model for human solid tumors. This model system incorporates physiologically relevant features and patient-derived or established malignant cell lines with clinically relevant genetic alterations from many tumor types. Twenty-six patient-derived or established malignant cell lines were evaluated representing sarcoma, melanoma, small cell lung cancer (SCLC), non-small cell lung cancer (NSCLC), as well as bladder, ovarian and pancreatic cancers. The concentration ranges selected for each drug and investigational agent were based upon clinically achievable concentrations if the clinical Cmax of the agent was known.
# Compounds. The drugs and compounds olaparib (NSC753686), talazoparib (NSC767125), berzosertib (NSC777718), elimusertib (NSC800525), nedisertib (NSC802822), VX-984 (NSC792969), AZD-1390 (NSC803789), temozolomide (NSC362856), topotecan (NSC609699), trabectedin (NSC813783), staurosporine (NSC755774), and gemcitabine (NSC613327) were obtained from the National Cancer Institute (NCI) Developmental Therapeutics Program Chemical Repository. The FDA-approved anticancer drug set is available from the Developmental Therapeutics Program at https://dtp.cancer.gov/organization/dscb/obtaining/available_plates.htm. […] The stock solutions were prepared in dimethyl sulfoxide (DMSO, Sigma-Aldrich, St. Louis, MO, cat. D2650) at 400-fold the tested concentration and stored at -70 degrees C. Prior to their use, the stock solutions were diluted in fresh medium and the final DMSO concentration in the assay was 0.25% (v/v). All drugs and investigational agents were tested over a range starting from a high concentration at or near the clinical Cmax and decreasing in half-log increments. If the clinical Cmax for an agent had not been determined, the highest concentration tested was 10 microM.
# Cell Lines. The patient-derived cancer cell (PDC) lines: 156681-154-R-J1-PDC, 283228-195-R-J1-PDC, 287954-098-R-J1-PDC, 292921-168-R-J2-PDC, 349418-098-R-PDC, 425362-245-T-J1-PDC, 556581-035-R-J1-PDC, and BL0293-F563-PDC were received from the NCI Patient-Derived Models Repository (PDMR, https://pdmr.cancer.gov). The established cell lines HS-SY-2 (RRID:CVCL_8719), MPNST, and SYO-1 (RRID:CVCL_7146) were obtained from the Sloan Kettering Institute. The alveolar soft parts sarcoma cell line ASPS-1 (RRID:CVCL_S738) was established at the NCI and grown from internal seed stocks. The following established cell lines were purchased from the American Type Culture Collection (ATCC, Manassas, VA): G-401 (ATCC, cat. CRL-1441, RRID:CVCL_0270), SW982 (ATCC, cat. HTB-93, RRID:CVCL_1734), VA-ES-BJ (ATCC, cat. CRL-2138, RRID:CVCL_1785), NCI-H719 (ATCC, cat. CRL-5837, RRID:CVCL_1582), NCI-H196 (ATCC, cat. CRL-5823, RRID:CVCL_1509), NCI-H841 (ATCC, cat. CRL-5845, RRID:CVCL_1595), NCI-H1618 (ATCC, cat. CRL-5879, RRID:CVCL_1480), NCI-H1876 (ATCC, cat. CRL-5902, RRID:CVCL_1503), DMS 114 (ATCC, cat. CRL-2066; RRID:CVCL_1174), NCI-H211 (ATCC, cat. CRL-5824; RRID:CVCL_1529), and SW 1271 (ATCC, cat. CRL-2177, RRID:CVCL_1716). The small cell lung cancer cell line COR-L88 was purchased from Sigma-Aldrich (cat. 92031917-1VL, RRID:CVCL_1141). The non-small cell lung cancer cell lines NCI-H226 (RRID:CVCL_1544) and NCI-H322M (RRID:CVCL_1557) were established at the NCI and grown from internal seed stocks. Pooled donor human umbilical vein endothelial cells (HUVEC, Lonza, cat. CC-2519) and human mesenchymal stem cells (hMSC, Lonza, cat. PT-2501) were purchased from Lonza (Walkersville, MD).
# Cell Culture. All cells were maintained in an incubator at 37 degrees C and 5% CO2 with 95% humidity. […]
# [1] = second compound 0.003 µM, first compound 0.00949 µM
# [2] = second compound 0.003 µM, first compound 0.03 µM
# [3] = second compound 0.003 µM, first compound 0.0949 µM
# [4] = second compound 0.003 µM, first compound 0.3 µM
# [5] = second compound 0.003 µM, first compound 0.949 µM
# [6] = second compound 0.003 µM, first compound 3 µM
# [7] = second compound 0.00949 µM, first compound 0.00949 µM
# [8] = second compound 0.00949 µM, first compound 0.03 µM
# [9] = second compound 0.00949 µM, first compound 0.0949 µM
# [10] = second compound 0.00949 µM, first compound 0.3 µM
# [11] = second compound 0.00949 µM, first compound 0.949 µM
# [12] = second compound 0.00949 µM, first compound 3 µM
# [13] = second compound 0.03 µM, first compound 0.00949 µM
# [14] = second compound 0.03 µM, first compound 0.03 µM
# [15] = second compound 0.03 µM, first compound 0.0949 µM
# [16] = second compound 0.03 µM, first compound 0.3 µM
# [17] = second compound 0.03 µM, first compound 0.949 µM
# [18] = second compound 0.03 µM, first compound 3 µM
# [19] = second compound 0.0949 µM, first compound 0.00949 µM
# [20] = second compound 0.0949 µM, first compound 0.03 µM
# [21] = second compound 0.0949 µM, first compound 0.0949 µM
# [22] = second compound 0.0949 µM, first compound 0.3 µM
# [23] = second compound 0.0949 µM, first compound 0.949 µM
# [24] = second compound 0.0949 µM, first compound 3 µM
# [25] = second compound 0.3 µM, first compound 0.00949 µM
# [26] = second compound 0.3 µM, first compound 0.03 µM
# [27] = second compound 0.3 µM, first compound 0.0949 µM
# [28] = second compound 0.3 µM, first compound 0.3 µM
# [29] = second compound 0.3 µM, first compound 0.949 µM
# [30] = second compound 0.3 µM, first compound 3 µM
# 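Note: spheroids exposed to compound for 7 days before measurement.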
# 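Throughout, for viability, T/C: percent of vehicle control viability with 100% = DMSO-treated spheroids.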
Structure (SMILES),IC50 (second compound 0.003 µM) [nM],IC50 (second compound 0.00949 µM) [nM],IC50 (second compound 0.03 µM) [nM],IC50 (second compound 0.0949 µM) [nM],IC50 (second compound 0.3 µM) [nM],"viability, T/C [3] [%]","viability, T/C [4] [%]","viability, T/C [5] [%]","viability, T/C [6] [%]","viability, T/C [9] [%]","viability, T/C [10] [%]","viability, T/C [11] [%]","viability, T/C [12] [%]","viability, T/C [15] [%]","viability, T/C [16] [%]","viability, T/C [17] [%]","viability, T/C [18] [%]","viability, T/C [21] [%]","viability, T/C [22] [%]","viability, T/C [23] [%]",further results
CNCc1ccc(-c2cc(-c3nc(-c4ccc(S(=O)(=O)C(C)C)cc4)cnc3N)on2)cc1 + CC[C@@]1(O)C(=O)OCc2c1cc1n(c2=O)Cc2cc3c(CN(C)C)c(O)ccc3nc2-1,202,160,147,< 9.49,< 9.49,95,26.4,6.42,1.25,78.2,15.9,6.27,0.63,74.5,10.1,3.96,0.78,12.8,4.56,3.43,"viability, T/C [1]: 106%; viability, T/C [2]: 96.8%; viability, T/C [7]: 103%; viability, T/C [8]: 96.3%; viability, T/C [13]: 89.1%; viability, T/C [14]: 83.9%; viability, T/C [19]: 25.5%; viability, T/C [20]: 22%; viability, T/C [24]: 0.31%; viability, T/C [25]: 3.32%; viability, T/C [26]: 4.32%; viability, T/C [27]: 3.68%; viability, T/C [28]: 3.02%; viability, T/C [29]: 2.18%; viability, T/C [30]: 0.36%"
Cn1ncnc1[C@H]1c2n[nH]c(=O)c3cc(F)cc(c23)N[C@@H]1c1ccc(F)cc1 + CC[C@@]1(O)C(=O)OCc2c1cc1n(c2=O)Cc2cc3c(CN(C)C)c(O)ccc3nc2-1,1620,1100,53.9,< 9.49,< 9.49,91.4,96.6,83.3,11.1,90.8,92.6,56.1,7.96,41.3,31.1,18.3,2.95,12.7,8.01,5.35,"viability, T/C [1]: 93.6%; viability, T/C [2]: 97.7%; viability, T/C [7]: 100%; viability, T/C [8]: 97.6%; viability, T/C [13]: 63.4%; viability, T/C [14]: 59.5%; viability, T/C [19]: 13.1%; viability, T/C [20]: 9.39%; viability, T/C [24]: 1.86%; viability, T/C [25]: 3.53%; viability, T/C [26]: 3.12%; viability, T/C [27]: 3.64%; viability, T/C [28]: 3.26%; viability, T/C [29]: 2.39%; viability, T/C [30]: 1.17%"
O=C(c1cc(Cc2n[nH]c(=O)c3ccccc23)ccc1F)N1CCN(C(=O)C2CC2)CC1 + CC[C@@]1(O)C(=O)OCc2c1cc1n(c2=O)Cc2cc3c(CN(C)C)c(O)ccc3nc2-1,27400,23400,4080,< 94.9,< 94.9,102,96.3,98,97.6,99.2,101,97.8,94.3,67.3,72.8,61.5,58.8,19.8,21.7,20.8,"viability, T/C (second compound 0.003 µM, first compound 9.49 µM): 76%; viability, T/C (second compound 0.003 µM, first compound 30 µM): 47.8%; viability, T/C (second compound 0.00949 µM, first compound 9.49 µM): 72.6%; viability, T/C (second compound 0.00949 µM, first compound 30 µM): 43.8%; viability, T/C (second compound 0.03 µM, first compound 9.49 µM): 29.8%; viability, T/C (second compound 0.03 µM, first compound 30 µM): 12.8%; viability, T/C [24]: 18%; viability, T/C (second compound 0.0949 µM, first compound 9.49 µM): 12%; viability, T/C (second compound 0.0949 µM, first compound 30 µM): 7.08%; viability, T/C [27]: 3.58%; viability, T/C [28]: 3.79%; viability, T/C [29]: 4.35%; viability, T/C [30]: 4.53%; viability, T/C (second compound 0.3 µM, first compound 9.49 µM): 3.36%; viability, T/C (second compound 0.3 µM, first compound 30 µM): 3.46%"
